Measured values published in EPA's ToxRefDB 2.

What was measured:
rabbit = conditions: Prenatal developmental toxicity study; himalayan; Oral; Gavage/Intubation; dose end: 18 GD; group: maternal; systemic / in life observation / clinical signs / defecation + systemic / in life observation / clinical signs / feces, discoloration + …
primate = conditions: Sub-acute repeat dose toxicity, macaque, Oral, Gavage/Intubation, dose end: 4 week, group: systemic
dog [1] = conditions: Sub-acute repeat dose toxicity, beagle, Oral, Gavage/Intubation, dose end: 4 week, group: systemic
rat [2] = conditions: Sub-acute repeat dose toxicity; sprague dawley; Oral; Gavage/Intubation; dose end: 4 week; group: systemic; systemic / organ weight / liver / absolute + systemic / organ weight / liver / relative to body weight
dog [3] = conditions: Sub-acute repeat dose toxicity, beagle, Oral, Gavage/Intubation, dose end: 4 week, group: systemic; remark: listed apart in the source
rat [4] = conditions: Combined chronic toxicity/carcinogenicity, sprague dawley, Oral, Feed, dose end: 104 week, group: systemic
rat [5] = conditions: Multigenerational reproductive toxicity study, sprague dawley, Oral, Feed, dose end: 2 generation
mouse [6] = conditions: Carcinogenicity, cd1, Oral, Feed, dose end: 22 month, group: systemic
rat [7] = conditions: Combined chronic toxicity/carcinogenicity, fischer, Oral, Feed, dose end: 103 week, group: systemic
mouse [8] = conditions: Combined chronic toxicity/carcinogenicity; b6c3f1; Oral; Feed; dose end: 103 week; group: systemic; systemic / in life observation / body weight / body weight
rat [9] = conditions: Prenatal developmental toxicity study; sprague dawley; Injection; Intramuscular; dose end: 14 GD; group: developmental; developmental / developmental malformation / mouth / jaw / cleft palate + developmental / developmental malformation / trunk / umbilical …
rat [10] = conditions: Prenatal developmental toxicity study, sprague dawley, Injection, Intramuscular, dose end: 13 GD
[11] = systemic / clinical chemistry / bilirubin / total bilirubin + systemic / organ weight / liver / relative to body weight + systemic / …
[12] = systemic / pathology microscopic / liver / granuloma + systemic / pathology microscopic / liver / infiltration cellular + systemic / …
[13] = systemic / clinical chemistry / alkaline phosphatase (alp/alk) / alkaline phosphatase (alp/alk) + systemic / pathology microscopic / liver…
[14] = systemic / pathology microscopic / liver / pigmentation
[15] = systemic / clinical chemistry / alanine aminotransferase (alt/sgpt) / alanine aminotransferase (alt/sgpt) + systemic / clinical chemistry / …
[16] = systemic / clinical chemistry / alkaline phosphatase (alp/alk) / alkaline phosphatase (alp/alk)
[17] = systemic / in life observation / body weight / body weight + systemic / in life observation / body weight / body weight gain
[18] = systemic / in life observation / body weight / body weight + systemic / in life observation / body weight / body weight gain + systemic / …
[19] = group: offspring, systemic / in life observation / body weight / offspring (pup) weight
[20] = group: parental, systemic / in life observation / body weight / body weight + systemic / in life observation / body weight / body weight gain
[21] = systemic / in life observation / body weight / body weight + systemic / in life observation / body weight / body weight gain + systemic / in…
[22] = systemic / pathology microscopic / pancreas / adenoma/carcinoma combined
[23] = group: developmental, developmental / developmental malformation / mouth / jaw / cleft palate + developmental / developmental malformation / trunk / umbilical …
[24] = group: developmental, developmental / developmental malformation / mouth / jaw / cleft palate + systemic / in life observation / body weight / fetal weight
[25] = group: maternal, reproductive / offspring survival early / dead fetuses / dead fetuses

SMILES: CC[C@H](NC(=O)c1cc(F)ccc1[N-]S(=O)(=O)c1cccc2cccnc12)c1ccccc1.[Na+] [AVE3295]
- LEL (rabbit): 1000 mg/kg/day
- LOAEL (rabbit): > 1000 mg/kg/day
- NEL (rabbit): 250 mg/kg/day
- NOAEL (rabbit): ≥ 1000 mg/kg/day
- LOAEL (primate; [11]): > 1000 mg/kg/day
- NOAEL (primate; [11]): ≥ 1000 mg/kg/day
- LEL (primate; [12]): 60 mg/kg/day
- NEL (primate; [12]): < 60 mg/kg/day
- LOAEL (dog [1]; [13]): 5 mg/kg/day
- NOAEL (dog [1]; [13]): 1 mg/kg/day
- LEL (dog [1]; [14]): 1 mg/kg/day
- NEL (dog [1]; [14]): < 1 mg/kg/day
- LEL (rat [2]): 2000 mg/kg/day
- LOAEL (rat [2]): > 2000 mg/kg/day
- NEL (rat [2]): 315 mg/kg/day
- NOAEL (rat [2]): ≥ 2000 mg/kg/day
- LOAEL (dog [3]; [15]): > 300 mg/kg/day
- NOAEL (dog [3]; [15]): ≥ 300 mg/kg/day
- LEL (dog [3]; [16]): 10 mg/kg/day
- NEL (dog [3]; [16]): < 10 mg/kg/day

SMILES: COc1nc(NC(C)C)nc(NC(C)C)n1 [Prometon]
- LEL (rat [4]; [17]): 23.3 mg/kg/day
- LOAEL (rat [4]; [17]): 23.3 mg/kg/day
- NEL (rat [4]; [18]): 0.89 mg/kg/day
- NOAEL (rat [4]; [18]): 0.89 mg/kg/day
- LEL (rat [5]; [19]): 35.1 mg/kg/day
- LOAEL (rat [5]; [19]): 35.1 mg/kg/day
- NEL (rat [5]; [19]): 1.45 mg/kg/day
- NOAEL (rat [5]; [19]): 1.45 mg/kg/day
- LEL (rat [5]; [20]): 35.1 mg/kg/day
- LOAEL (rat [5]; [20]): 35.1 mg/kg/day
- NEL (rat [5]; [20]): 1.45 mg/kg/day
- NOAEL (rat [5]; [20]): 1.45 mg/kg/day
- LOAEL (mouse [6]; [21]): 737 mg/kg/day
- NEL (mouse [6]; [21]): 1.7 mg/kg/day
- NOAEL (mouse [6]; [21]): 70 mg/kg/day
- LEL (mouse [6]; systemic / pathology microscopic / spleen / depletion): 70 mg/kg/day

SMILES: CN(C)[C@@H]1C(=O)C(C(N)=O)=C(O)[C@@]2(O)C(=O)C3=C(O)c4c(O)cccc4[C@@](C)(O)[C@H]3C[C@@H]12.Cl [Tetracycline hydrochloride]
- LOAEL (rat [7]; systemic / pathology microscopic / liver / clear cell focus + systemic / pathology microscopic / liver / cytoplasmic alteration): 910 mg/kg/day
- NOAEL (rat [7]; systemic / pathology microscopic / liver / clear cell focus + systemic / pathology microscopic / liver / cytoplasmic alteration + systemic…): 440 mg/kg/day
- LEL (rat [7]; [22]): 440 mg/kg/day
- NEL (rat [7]; [22]): < 440 mg/kg/day
- LEL (mouse [8]): 1500 mg/kg/day
- LOAEL (mouse [8]): 1500 mg/kg/day
- NEL (mouse [8]): < 1500 mg/kg/day
- NOAEL (mouse [8]): < 1500 mg/kg/day

SMILES: CC1(C)O[C@@H]2C[C@H]3[C@@H]4CCC5=CC(=O)C=C[C@]5(C)[C@@]4(F)[C@@H](O)C[C@]3(C)[C@]2(C(=O)CO)O1 [Triamcinolone acetonide]
- LEL (rat [9]): 0.5 mg/kg/day
- LOAEL (rat [9]): > 0.5 mg/kg/day
- NEL (rat [9]): < 0.5 mg/kg/day
- NOAEL (rat [9]): ≥ 0.5 mg/kg/day
- LOAEL (rat [10]; [23]): > 5 mg/kg/day
- NOAEL (rat [10]; [23]): ≥ 5 mg/kg/day
- LEL (rat [10]; [24]): 0.5 mg/kg/day
- NEL (rat [10]; [24]): < 0.5 mg/kg/day
- LEL (rat [10]; [25]): 2.5 mg/kg/day
- LOAEL (rat [10]; [25]): > 5 mg/kg/day
- NEL (rat [10]; [25]): 0.5 mg/kg/day
- NOAEL (rat [10]; [25]): ≥ 5 mg/kg/day
